This is an account of results in patent US20250002471A1 (Gilead Sciences, Inc., priority 2020, published 2025).

The target of one test is T1, TLR7 (Homo sapiens, UniProt Q9NYK1).
T1 construct: lymphocytes, monocytes and dendritic cells that express TLR7, TLR8 and TLR9; endogenous in cells; host or cells: human PBMCs from healthy donors
T1 sequence (Q9NYK1 27-1049): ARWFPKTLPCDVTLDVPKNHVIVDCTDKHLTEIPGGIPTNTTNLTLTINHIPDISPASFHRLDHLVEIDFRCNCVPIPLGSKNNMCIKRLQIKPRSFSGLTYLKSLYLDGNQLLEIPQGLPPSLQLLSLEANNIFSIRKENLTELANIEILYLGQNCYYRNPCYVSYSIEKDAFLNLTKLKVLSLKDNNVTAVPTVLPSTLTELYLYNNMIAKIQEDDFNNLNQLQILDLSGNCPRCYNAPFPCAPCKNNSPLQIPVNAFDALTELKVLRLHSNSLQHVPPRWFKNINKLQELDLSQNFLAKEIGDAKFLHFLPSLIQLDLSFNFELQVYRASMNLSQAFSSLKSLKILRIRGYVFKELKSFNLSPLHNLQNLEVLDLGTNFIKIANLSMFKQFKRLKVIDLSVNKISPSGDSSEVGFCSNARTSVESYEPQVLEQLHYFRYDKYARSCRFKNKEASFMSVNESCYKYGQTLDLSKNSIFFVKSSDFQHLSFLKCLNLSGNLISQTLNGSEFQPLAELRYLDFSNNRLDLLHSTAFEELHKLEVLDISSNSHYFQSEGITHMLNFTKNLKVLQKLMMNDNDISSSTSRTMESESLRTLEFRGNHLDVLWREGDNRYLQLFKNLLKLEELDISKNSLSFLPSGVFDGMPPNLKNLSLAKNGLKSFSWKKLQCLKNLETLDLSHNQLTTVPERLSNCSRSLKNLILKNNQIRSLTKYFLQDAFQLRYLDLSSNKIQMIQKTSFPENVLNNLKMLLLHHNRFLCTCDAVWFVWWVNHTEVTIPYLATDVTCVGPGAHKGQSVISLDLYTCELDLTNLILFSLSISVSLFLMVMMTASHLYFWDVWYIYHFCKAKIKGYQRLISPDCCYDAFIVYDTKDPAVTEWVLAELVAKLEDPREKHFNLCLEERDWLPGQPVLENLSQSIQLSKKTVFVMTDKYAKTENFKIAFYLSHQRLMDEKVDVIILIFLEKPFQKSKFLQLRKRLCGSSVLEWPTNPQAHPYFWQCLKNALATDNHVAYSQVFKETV
Put plainly: Human PBMC cell-based assay, TLR7 agonist GS-986 stimulation, cytokine (IL-6 and IFNα) readout. To be noted: human PBMCs, GS-986 400 nM, 6 hours; Table 26; read-out: TLR-7 EC50. The method in brief:
(§1)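 Readout is IL-6 and IFNα in supernatants, quantified by electrochemiluminescence, with EC50 from a sigmoidal fit of cytokine versus concentration. Healthy-donor human PBMCs, 100,000 per well, got antagonist for 1 h at 37 °C, then 6 h agonist exposure: TLR7 via GS-986 at 400 nM final, TLR9 via ODN-2216 at 3 μM final.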

A further test concerns the target T2, TLR9 (Homo sapiens, UniProt Q9NR96).
T2 construct: lymphocytes, monocytes and dendritic cells that express TLR7, TLR8 and TLR9; endogenous in cells; host or cells: human PBMCs from healthy donors
T2 sequence (Q9NR96 26-1032): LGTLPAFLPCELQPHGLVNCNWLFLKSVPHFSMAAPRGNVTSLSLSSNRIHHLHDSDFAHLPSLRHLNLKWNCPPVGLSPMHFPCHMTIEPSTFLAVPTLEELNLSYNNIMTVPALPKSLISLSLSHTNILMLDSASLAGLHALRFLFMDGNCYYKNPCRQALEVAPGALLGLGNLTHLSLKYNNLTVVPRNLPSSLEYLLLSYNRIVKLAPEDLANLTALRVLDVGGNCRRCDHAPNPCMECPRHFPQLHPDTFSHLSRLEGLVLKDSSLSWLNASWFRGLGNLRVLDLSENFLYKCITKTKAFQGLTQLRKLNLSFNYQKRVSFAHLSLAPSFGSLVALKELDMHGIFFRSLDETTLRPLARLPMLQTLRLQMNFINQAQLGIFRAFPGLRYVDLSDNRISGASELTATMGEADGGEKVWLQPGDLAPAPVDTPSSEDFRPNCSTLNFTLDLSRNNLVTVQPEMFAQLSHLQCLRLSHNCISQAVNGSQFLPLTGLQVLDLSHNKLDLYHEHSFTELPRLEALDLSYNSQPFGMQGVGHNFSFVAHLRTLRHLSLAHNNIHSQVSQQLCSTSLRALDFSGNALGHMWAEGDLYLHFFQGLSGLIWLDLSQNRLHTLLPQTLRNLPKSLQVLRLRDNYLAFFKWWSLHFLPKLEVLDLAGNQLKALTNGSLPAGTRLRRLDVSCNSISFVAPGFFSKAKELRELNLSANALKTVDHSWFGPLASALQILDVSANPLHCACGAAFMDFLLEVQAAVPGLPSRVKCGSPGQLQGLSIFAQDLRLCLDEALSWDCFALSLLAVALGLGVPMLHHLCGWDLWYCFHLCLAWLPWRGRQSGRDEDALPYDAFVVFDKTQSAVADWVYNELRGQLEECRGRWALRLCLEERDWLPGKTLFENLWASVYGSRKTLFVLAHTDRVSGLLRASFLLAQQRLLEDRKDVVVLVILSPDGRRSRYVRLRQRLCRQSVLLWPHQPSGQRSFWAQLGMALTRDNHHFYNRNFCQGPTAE
The test can be described thus: Human PBMC cell-based assay, TLR9 agonist ODN-2216 stimulation, cytokine (IL-6 and IFNα) readout. To be noted: human PBMCs, ODN-2216 3 μM, 6 hours; Table 26; read-out: TLR-9 EC50. Summed up: as §1

Turning to `Cc1cc(-c2[nH]c3cc(-c4ccc(N5CCN(CC(C)(C)O)CC5)nc4)ccc3c2C)cc(C)n1` [Example 129, 1-(4-(5-(2-(2,6-dimethylpyridin-4-yl)-3-methyl-1H-indol-6-yl)pyridin-2-yl)piperazin-1-yl)-2-methylpropan-2-ol], the results for the EC50 on TLR7 and at TLR9 were 14.4 nM and 24.7 nM, respectively.

Turning to `Cc1cc(-c2[nH]c3cc(-c4ccc(S(=O)(=O)N5CCNCC5)cc4)ccc3c2C)cc(C)n1` [Example 68], the EC50 on TLR7 stood at 324 nM; on TLR9, 93.2 nM.

As for `Cc1cc(-c2[nH]c3cc(-c4cnn(CCN)c4)ccc3c2C)cc(C)n1` [Example 16], the EC50 was 254 nM on TLR7 and 275 nM at TLR9.

For `Cc1cc(-c2[nH]c3cc(-c4cccc(S(=O)(=O)N5CCNCC5)c4)ccc3c2C)cc(C)n1` [Example 69], the values for the EC50 at TLR7 and on TLR9 were 209 nM and 38.4 nM, respectively.

As to `Cc1cc(-c2[nH]c3cc(-c4ccnc(N(C)C)c4)ccc3c2C)cc(C)n1` [Example 61], the concentration giving a half-maximal response (EC50) at TLR7 worked out at 886 nM; at TLR9, 601 nM.

In the case of `Cc1cc(-c2[nH]c3cc(-c4ccc(N5CC[C@@H](NCCO)C5)nc4)ccc3c2C)cc(C)n1` [Example 130, (R)-2-((1-(5-(2-(2,6-dimethylpyridin-4-yl)-3-methyl-1H-indol-6-yl)pyridin-2-yl)pyrrolidin-3-yl)amino)ethan-1-ol], the EC50 is 16.3 nM at TLR7 and 18.2 nM at TLR9.

For `Cc1cc(-c2[nH]c3cc(-c4ccc(N5CC[C@@H](N)C5)nc4)ccc3c2C2CC2)cc(C)n1` [Example 105], the concentration giving a half-maximal response (EC50) on TLR7 is 0.9 nM; on TLR9, 31.2 nM.

`Cc1cc(-c2[nH]c3cc(-c4ccc(N5CC6CNCC6C5)nc4)ccc3c2C)cc(C)n1` (centres unmarked) [Example 34]: the EC50 was 17.7 nM at TLR7 and 83.4 nM on TLR9.

Take `Cc1cncc(-c2[nH]c3cc(-c4ccc(N5CCNCC5)nc4)ccc3c2C)c1` [Example 84]: the EC50 on TLR7 worked out at 1990 nM; on TLR9, 964 nM.

For the compound `CCc1c(-c2cc(C)nc(C)c2)[nH]c2cc(-c3ccc(N4CCNCC4)nc3)ccc12` [Example 70, 2-(2,6-dimethylpyridin-4-yl)-3-ethyl-6-(6-(piperazin-1-yl)pyridin-3-yl)-1H-indole], the EC50 on TLR7 was 6.7 nM; on TLR9 it was 187 nM.

Consider `Cc1cc(-c2[nH]c3cc(-c4ccc(C(=O)N5CCC(N)CC5)cc4)ccc3c2C)cc(C)n1` [Example 125], for which the EC50 was 74.8 nM at TLR7 and 98.3 nM at TLR9.

With `CCc1c(-c2cc(C)c3ncnn3c2)[nH]c2cc(C3CCNCC3)ccc12` [Example 52], the EC50 on TLR7 was found to be 12 nM; on TLR9, 1920 nM.

For `Cc1cc(-c2[nH]c3cc(-c4ccc(N5CC[C@H]6CNC[C@H]65)nc4)ccc3c2C)cc(C)n1` [Example 33], the EC50 at TLR7 came out at 51 nM; on TLR9, 79.9 nM.

For the compound `Cc1cc(-c2[nH]c3cc(-c4ccc(C(=O)N5CC6CNCC6C5)cc4)ccc3c2C)cc(C)n1` (centres unmarked) [Example 126], the EC50 on TLR7 was determined as 48 nM; on TLR9, 294 nM.

As for `Cc1cc(-c2[nH]c3cc(-c4ccc(N5CCN(C)CC5)nc4)ccc3c2C)cc(C)n1` [Example 41, 2-(2,6-dimethylpyridin-4-yl)-3-methyl-6-(6-(4-methylpiperazin-1-yl)pyridin-3-yl)-1H-indole], the EC50 was 12.9 nM at TLR7 and 69.6 nM at TLR9.

As for `Cc1cc(-c2[nH]c3cc(-c4cnc5[nH]c(C)nc5c4)ccc3c2C)cc(C)n1` [Example 45], the EC50 at TLR7 was determined as 331 nM; on TLR9 it was 621 nM.

For the compound `Cc1cc(-c2[nH]c3cc(C#CC4CCNCC4)ccc3c2C)cc(C)n1` [Example 100, 2-(2,6-dimethylpyridin-4-yl)-3-methyl-6-(piperidin-4-ylethynyl)-1H-indole], the EC50 at TLR7 was 437 nM; at TLR9 it was 101 nM.

Turning to `Cc1cc(-c2[nH]c3cc(-c4ccc(N5CCN(C(=O)C67CNC(C6)C7)CC5)nc4)ccc3c2C)cc(C)n1` [Example 140], the figures for the EC50 at TLR7 and at TLR9 were 30.5 nM and 42.3 nM, respectively.

In the case of `Cc1cc(-c2[nH]c3cc(-c4ccc(N5CCNCC5)nc4)cnc3c2C)cc(C)n1` [Example 149, 2-(2,6-dimethyl-4-pyridyl)-3-methyl-6-(6-piperazin-1-yl-3-pyridyl)-1H-pyrrolo[3,2-b]pyridine], the EC50 at TLR7 came to 1260 nM; on TLR9, 188 nM.

Take `Cc1c(-c2cc(C)c3ncnn3c2)[nH]c2cc(C3CCNCC3)ccc12` [Example 51]: the results for the EC50 on TLR7 and on TLR9 were 35.8 nM and 1670 nM, respectively.

Regarding `Cc1cc(-c2[nH]c3cc(-c4ccc(N5CC[C@H](N)C5)nc4)ccc3c2C)cc(C)n1` [Example 32], the EC50 at TLR7 was found to be 17.7 nM; at TLR9, 37.3 nM.

Consider `Cc1cc(-c2[nH]c3cc(-c4ccc(C(=O)N5CCC(N)CC5)nc4)ccc3c2C)cc(C)n1` [Example 145, (4-aminopiperidin-1-yl)(5-(2-(2,6-dimethylpyridin-4-yl)-3-methyl-1H-indol-6-yl)pyridin-2-yl)methanone], for which the EC50 at TLR7 amounted to 48.8 nM; at TLR9 it was 277 nM.

For `Cc1cc(-c2[nH]c3cc(-c4ccc(N5CCNCC5)nc4)ncc3c2C)cc(C)n1` [Example 151], the EC50 at TLR7 worked out at 867 nM; on TLR9, 537 nM.

As for `Cc1cc(-c2[nH]c3cc(-c4ccc(N5CCNCC5)nc4)ccc3c2C)cn(C)c1=O` [Example 94, 1,3-dimethyl-5-(3-methyl-6-(6-(piperazin-1-yl)pyridin-3-yl)-1H-indol-2-yl)pyridin-2(1H)-one], the EC50 at TLR7 is 4.5 nM; at TLR9 it was 139 nM.

Take `Cc1cc(-c2[nH]c3cc(-c4ccc(N5CCN(CCO)C(=O)C5)nc4)ccc3c2C)cc(C)n1` [Example 39]: the figures for the EC50 on TLR7 and at TLR9 were 26.4 nM and 310 nM, respectively.

Consider `Cc1cc(-c2[nH]c3cc(-c4ccc(N5CCC(N)CC5)nc4)ccc3c2C)cc(C)n1` [Example 21, 1-(5-(2-(2,6-dimethylpyridin-4-yl)-3-methyl-1H-indol-6-yl)pyridin-2-yl)piperidin-4-amine], for which the EC50 on TLR7 was determined as 8.6 nM; at TLR9, 28.3 nM.

With `Cc1cc(-c2[nH]c3cc(-c4ccc(N5C[C@H]6CC[C@@H](C5)[C@@H]6N)nc4)ccc3c2C)cc(C)n1` [Example 28], the results for the EC50 on TLR7 and on TLR9 were 63 nM and 69.9 nM, respectively.

As to `Cc1cc(-c2[nH]c3cc(-c4ccc(N5CCCNCC5)nc4)ccc3c2C)cc(C)n1` [Example 103, 6-(6-(1,4-diazepan-1-yl)pyridin-3-yl)-2-(2,6-dimethylpyridin-4-yl)-3-methyl-1H-indole], the figures for the concentration for a half-maximal effect (EC50) on TLR7 and at TLR9 were 35.1 nM and 45.7 nM, respectively.
